Experiments:
Assay in all cases: p-nitrophenol release at […] nm, Michaelis-Menten fit
Format in all cases: biochemical, uncultured bacterium (alpaca faeces metagenome)
Details in all cases: 50 mM potassium phosphate pH 7.5, 20 °C
[1] = tested on: Fuc25D
[2] = tested on: Fuc25C
[3] = tested on: Fuc25E
[4] = tested on: Fuc25A

Km [1]: 79.7 ± 8.6 µM
Km [2]: 1400 ± 374 µM
Km [3]: 85.1 ± 12.9 µM
Km [4]: 334 ± 21.4 µM
SMILES: C[C@@H]1O[C@@H](Oc2ccc([N+](=O)[O-])cc2)[C@@H](O)[C@H](O)[C@@H]1O [pNP-αFuc]
